The structures appear in SMILES notation. “And” between values parts separate entries of the source, which are not always exact repeats. Equal entries are not always repeated.

The subject of the assay is 699152-130-R-J1-PDC complex spheroid growth. Kind of assay: Anticancer human tumor 699152-130-R-J1-PDC patient-derived pancreatic carcinoma cell line growth inhibition [AhR]. To be noted: for viability, T/C: stronger effect = lower value. An excerpt:
Multicellular complex tumor spheroid response to aryl hydrocarbon receptor antagonists in combination with a variety of drugs and investigational agents in selected tumor cell lines
The current study was undertaken to assess response to aryl hydrocarbon receptor antagonists in combination with standard-of-care drugs and investigational agents in solid tumor complex spheroid models. Complex spheroids include a stromal component modeled by human endothelial cells (HUVEC) and fibroblasts modeled by human mesenchymal stem cells (MSCs). The concentration ranges selected for each drug and investigational agent were based upon clinically achievable concentrations if the clinical Cmax of the agent was known.
Compounds. The drugs and investigational agents: BAY 2416964 (NSC825713), GNF351 (NSC835774), CH-223191 (NSC835775), CPI-455 (NSC825282), aza-TdCyd (NSC777586), decitabine (NSC127716), belinostat (NSC758774), entinostat (NSC756642), pevonedistat (NSC761192), tazemetostat (NSC777109), talazoparib (NSC765396), olaparib (NSC753686), selinexor (NSC780203), nedisertib (M3814, NSC802822), bortezomib (NSC756655), venetoclax (NSC766270), doxorubicin (NSC123127), elimusertib (BAY189344, NSC800525), ceralasertib (AZD6738, NSC777638), TAK-243 (NSC785004), alisertib (NSC759677), etoposide (NSC141540), topotecan (NSC609699), eribulin (NSC707389), gemcitabine (NSC613327), carboplatin (NSC241240), cisplatin (NSC119875), and SN-38 (NSC673596) were obtained from the National Cancer Institute (NCI) Developmental Therapeutics Program Chemical Repository (32). The FDA-approved anticancer drug set is available from the Developmental Therapeutics Program at https://dtp.cancer.gov/organization/dscb/obtaining/available plates.htm. […] The stock solutions were prepared in dimethyl sulfoxide (DMSO, Sigma-Aldrich, St. Louis, MO, cat. D2650), except for the platinum compounds which were prepared in saline (Quality Biological, Gaithersburg, MD, cat. 114-055-101), at 800-fold the tested concentration and stored at -70 degrees C prior to their use. All drugs and investigational agents were tested over a range starting from a high concentration at or near the clinical Cmax and decreasing in half-log increments. If the clinical Cmax for an agent had not been determined, the highest concentration tested was 10 microM (Table 1).
Cell Culture. All cells were maintained in an incubator at 37 degrees C and 5% CO2 with 95% humidity. The PDC lines were cultured according to standard operating procedures established by the NCI PDMR (https://pdmr.cancer.gov). Briefly, all PDCs were thawed and cultured in Matrigel-coated flasks prepared with a working solution of 1X Ham's F-12 nutrient mix, without supplementation (Invitrogen, Waltham, MA, cat. 11765054), 100 U/mL penicillin-streptomycin (Invitrogen, cat. 15140122), and 2.5% Matrigel (Corning Inc., Corning, NY, cat. 354248) for the first three passages. All PDCs were cultured in complete DMEM/F-12 media containing advanced DMEM/F-12 (Invitrogen, cat. 12634028), 4.9% defined fetal bovine serum, heat inactivated (HyClone Laboratories Inc., Logan, UT, cat. SH30070.03HI), 389 ng/mL hydrocortisone (Sigma-Aldrich, cat. H4001), 9.7 ng/mL human EGF recombinant protein (Invitrogen, cat. PHG0313), 23.4 microg/mL adenine (Sigma-Aldrich, cat. A2786), 97.3 U/mL penicillin-streptomycin (Invitrogen, cat. 15140122), 1.9 mM L-glutamine (Invitrogen, cat. 25030081), and 9.7 microM Y-27632 dihydrochloride (Tocris Bioscience, Bristol, United Kingdom, cat. 1254). The PDCs were cultured in complete DMEM/F12 media without 10 microM Y-27632 dihydrochloride for at least two passages prior to the screen. The established cell lines NCI-H1341 and […] were cultured in DMEM/F-12, HEPES (Invitrogen, cat. 11330032), 5% defined fetal bovine serum (HyClone Laboratories Inc., cat. SH30070.03), ITS premix universal culture supplement [insulin (5 microg/mL), transferrin (5 microg/mL), and selenious acid (5 ng/mL)] […]

The mark [1] stands for this setting: curve of first compound, second compound 0.1 µM.
Where [2] appears, read: curve of first compound, second compound 0.316 µM.
Where [3] appears, read: curve of first compound, second compound 1 µM.
Setting [4] is: curve of first compound, second compound 3.16 µM.
The mark [5] stands for this setting: curve of first compound, second compound 10 µM.
Setting [6] is: second compound 0.1 µM, first compound 0.0316 µM.
Where [7] appears, read: second compound 0.1 µM, first compound 0.1 µM.
[8] abbreviates: second compound 0.1 µM, first compound 0.316 µM.
Setting [9] is: second compound 0.1 µM, first compound 1 µM.
Setting [10] is: second compound 0.1 µM, first compound 3.16 µM.
The mark [11] stands for this setting: second compound 0.1 µM, first compound 10 µM.
Setting [12] is: second compound 0.316 µM, first compound 0.0316 µM.
The mark [13] stands for this setting: second compound 0.316 µM, first compound 0.1 µM.
[14] abbreviates: second compound 0.316 µM, first compound 0.316 µM.
Where [15] appears, read: second compound 0.316 µM, first compound 1 µM.
[16] abbreviates: second compound 0.316 µM, first compound 3.16 µM.
[17] abbreviates: second compound 0.316 µM, first compound 10 µM.
The mark [18] stands for this setting: second compound 1 µM, first compound 0.0316 µM.
Setting [19] is: second compound 1 µM, first compound 0.1 µM.
[20] abbreviates: second compound 1 µM, first compound 0.316 µM.
Setting [21] is: second compound 1 µM, first compound 1 µM.
Where [22] appears, read: second compound 1 µM, first compound 3.16 µM.
[23] abbreviates: second compound 1 µM, first compound 10 µM.
Setting [24] is: second compound 3.16 µM, first compound 0.0316 µM.
The mark [25] stands for this setting: second compound 3.16 µM, first compound 0.1 µM.
Where [26] appears, read: second compound 3.16 µM, first compound 0.316 µM.
[27] abbreviates: second compound 3.16 µM, first compound 1 µM.
Setting [28] is: second compound 3.16 µM, first compound 3.16 µM.
Where [29] appears, read: second compound 3.16 µM, first compound 10 µM.
Setting [30] is: second compound 10 µM, first compound 0.0316 µM.
Setting [31] is: second compound 10 µM, first compound 0.1 µM.
[32] abbreviates: second compound 10 µM, first compound 0.316 µM.
Where [33] appears, read: second compound 10 µM, first compound 1 µM.
Setting [34] is: second compound 10 µM, first compound 3.16 µM.
Setting [35] is: second compound 10 µM, first compound 10 µM.
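Further: compound exposure lasted 7 days after spheroids had grown for 3 days.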

On to `Nc1ncn(C2CC(O)C(CO)S2)c(=O)n1` (stereo not drawn), for which the viability, T/C was 98% and 103% and 102% (compound 0.000949 µM); 105% and 110% and 111% (compound 0.003 µM); 97% and 102% and 112% (compound 0.00949 µM); 99.5% and 104% and 110% (compound 0.03 µM); 110% and 101% and 95.2% (compound 0.0949 µM); 111% and 96.2% and 102% (compound 0.3 µM). In addition, the IC50 (curve of compound) is more than 0.3 µM.

Take `CC[C@@]1(O)C(=O)OCc2c1cc1n(c2=O)Cc2cc3c(CN(C)C)c(O)ccc3nc2-1`: the viability, T/C runs as follows: (compound 0.000316 µM) 103% and 108% and 86.6%; (compound 0.001 µM) 91.2% and 96.4% and 99%; (compound 0.00316 µM) 104% and 102% and 90%; (compound 0.01 µM) 103% (2×) and 83.5%; (compound 0.0316 µM) 90.8% and 91.3% and 70%; (compound 0.1 µM) 62.8% and 70.9% and 53.5%. The IC50 (curve of compound) is more than 0.1 µM.

`O=C(C=Cc1cccc(S(=O)(=O)Nc2ccccc2)c1)NO` + CC(CO)NC(=O)c1cc(-c2ccc(Cl)cc2)nn(-c2cnn(C)c2)c1=O: the IC50 runs as follows: under setting [1], more than 10 µM; under setting [2], more than 10 µM; under setting [3], more than 10 µM; under setting [4], more than 10 µM; under setting [5], more than 10 µM. For the same compound, the viability, T/C by setting is: under setting [6], 102%; under setting [7], 102%; under setting [8], 111%; under setting [9], 112%; under setting [10], 96.8%; under setting [11], 79.1%. The viability, T/C by setting is: under setting [12], 92.8%; under setting [13], 107%; under setting [14], 111%; under setting [15], 106%; under setting [16], 102%; under setting [17], 76.2%. Moreover, the viability, T/C under setting [18] is 90.2%; the viability, T/C under setting [19] was 96.8%; the viability, T/C under setting [20] is 104%; the viability, T/C under setting [21] is 101%; the viability, T/C under setting [22] is 94.3%; the viability, T/C under setting [23] is 82.6%. For the same compound, the viability, T/C runs as follows: under setting [24], 84.2%; under setting [25], 83.8%; under setting [26], 93.9%; under setting [27], 95.4%; under setting [28], 84%; under setting [29], 83.9%. Moreover, the viability, T/C reads like this: under setting [30], 85%; under setting [31], 95.4%; under setting [32], 81.7%; under setting [33], 89.4%; under setting [34], 90.5%; under setting [35], 79.4%.

As for `COc1cc(C2c3cc4c(cc3C(OC3OC5COC(C)OC5C(O)C3O)C3COC(=O)C23)OCO4)cc(OC)c1O` (stereo not drawn), the viability, T/C runs as follows: (compound 0.0316 µM) 97.3% and 94.8% and 92.4%; (compound 0.1 µM) 94.7% and 101% and 86.3%; (compound 0.316 µM) 76.1% and 83.2% and 73.8%; (compound 1 µM) 66.5% and 70.9% and 62.2%; (compound 3.16 µM) 68.3% and 64.6% and 51.9%; (compound 10 µM) 53.4% and 53.8% and 44.4%. Besides, the concentration for half-maximal inhibition (IC50) (curve of compound) is > 10 µM and 4.09 µM.

For `O=C(c1cc(Cc2n[nH]c(=O)c3ccccc23)ccc1F)N1CCN(C(=O)C2CC2)CC1`, the viability, T/C is 98.3% and 101% and 99.8% (compound 0.0316 µM); 104% and 105% and 98.3% (compound 0.1 µM); 101% and 95% and 92% (compound 0.316 µM); 104% and 102% and 95.3% (compound 1 µM); 98.9% and 93% and 89.2% (compound 3.16 µM); 103% and 82.8% and 83.2% (compound 10 µM). Further, where the note is “curve of compound”, the IC50 is more than 10 µM.

For `Nc1ccn(C2OC(CO)C(O)C2(F)F)c(=O)n1` (stereo not drawn) + CC(CO)NC(=O)c1cc(-c2ccc(Cl)cc2)nn(-c2cnn(C)c2)c1=O, the IC50 was found to be 5.75 µM under setting [1]; 10 µM under setting [2]; 7.01 µM under setting [3]; 2.91 µM under setting [4]; 9.15 µM under setting [5]. The viability, T/C under setting [6] is 67.1%; the viability, T/C under setting [7] is 73.4%; the viability, T/C under setting [8] was 62%; the viability, T/C under setting [9] is 56.4%; the viability, T/C under setting [10] was 52.6%; the viability, T/C under setting [11] was 48.1%. Further, the viability, T/C reads like this: under setting [12], 67%; under setting [13], 73.1%; under setting [14], 50.8%; under setting [15], 53.6%; under setting [16], 50.6%; under setting [17], 47%. The viability, T/C is, setting by setting: under setting [18], 68.8%; under setting [19], 69.5%; under setting [20], 63.5%; under setting [21], 61.5%; under setting [22], 56.7%; under setting [23], 47.1%. Also, the viability, T/C reads like this: under setting [24], 66.1%; under setting [25], 67.4%; under setting [26], 55.8%; under setting [27], 54.3%; under setting [28], 49.2%; under setting [29], 46.3%. Further, the viability, T/C is 68.9% under setting [30]; 70.7% under setting [31]; 62% under setting [32]; 60.9% under setting [33]; 53.9% under setting [34]; 50% under setting [35].
